In general, pEC50 refers to −log10 of the EC50, conventionally taken in molar units. As a reminder, the pIC50 is −log10 of the IC50, conventionally taken in molar units.

20 molecules from ChEMBL document CHEMBL1134503, “Synthesis, antifolate, and antitumor activities of classical and nonclassical 2-amino-4-oxo-5-substituted-pyrrolo[2,3-d]pyrimidines” (J Med Chem, 2001) can be followed below.

Assay [1] deals with A253 cell line. The assay is described as follows: Growth inhibition of A253 cell lines. Format: functional, cell-based. To be noted: Homo sapiens.
The test system of assay [2] is CCRF-CEM. The assay is described as follows: Growth inhibition of parental CCRF-CEM cells. In kind it is functional, cell-based. To be noted: Homo sapiens.
Assay [3] relates to CCRF-CEM. As to the kind of experiment: Growth inhibition of CCRF-CEM cells resistant to MTX. To be noted: Homo sapiens. In kind it is functional, cell-based.
Assay [4] has as its target T1, Dihydrofolate reductase (Rattus norvegicus, UniProt Q920D2).
T1 sequence (Q920D2 whole entry): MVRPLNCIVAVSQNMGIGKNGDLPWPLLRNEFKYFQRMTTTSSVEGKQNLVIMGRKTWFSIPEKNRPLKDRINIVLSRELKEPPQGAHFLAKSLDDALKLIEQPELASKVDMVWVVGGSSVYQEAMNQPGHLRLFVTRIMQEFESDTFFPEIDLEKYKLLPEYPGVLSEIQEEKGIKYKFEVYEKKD
The assay is described as follows: Inhibition of rat liver dihydrofolate reductase.

Assay [5] deals with Dihydrofolate reductase; T. gondii vs rat (Toxoplasma gondii) (UniProt Q920D2+Q07422). The assay is described as follows: Ratio of binding to rat liver and Toxoplasma gondii dihydrofolate reductase.
The target of assay [6] is T2, Dihydrofolate reductase (Pneumocystis carinii, UniProt P16184).
T2 sequence (P16184 whole entry): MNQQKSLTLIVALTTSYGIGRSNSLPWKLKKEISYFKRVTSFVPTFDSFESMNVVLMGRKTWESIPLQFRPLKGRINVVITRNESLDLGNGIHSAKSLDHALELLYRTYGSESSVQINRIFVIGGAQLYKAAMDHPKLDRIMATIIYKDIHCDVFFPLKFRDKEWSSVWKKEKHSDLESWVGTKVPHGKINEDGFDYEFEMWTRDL
The assay is described as follows: Inhibitory activity against Pneumocystis carinii dihydrofolate reductase.

Assay [7] has as its system CCRF-CEM. As to the kind of experiment: Growth inhibition of […], defined mechanisms of MTX resistance during continuous (0-120 h) exposure. Format: functional, cell-based. To be noted: Homo sapiens.
The subject of assay [8] is CCRF-CEM. As to the kind of experiment: Growth inhibition of DHFR-overexpressing cells, defined mechanisms of MTX resistance during continuous (0-120 h) exposure. To be noted: Homo sapiens. In kind it is functional, cell-based.
In assay [9] the test system is FaDu. The assay is described as follows: Growth inhibition of FaDu human head and neck squamous cell carcinoma cell lines. Format: functional, cell-based.
Assay [10] addresses T3, Bifunctional dihydrofolate reductase-thymidylate synthase (Toxoplasma gondii, UniProt Q07422).
T3 sequence (Q07422 whole entry): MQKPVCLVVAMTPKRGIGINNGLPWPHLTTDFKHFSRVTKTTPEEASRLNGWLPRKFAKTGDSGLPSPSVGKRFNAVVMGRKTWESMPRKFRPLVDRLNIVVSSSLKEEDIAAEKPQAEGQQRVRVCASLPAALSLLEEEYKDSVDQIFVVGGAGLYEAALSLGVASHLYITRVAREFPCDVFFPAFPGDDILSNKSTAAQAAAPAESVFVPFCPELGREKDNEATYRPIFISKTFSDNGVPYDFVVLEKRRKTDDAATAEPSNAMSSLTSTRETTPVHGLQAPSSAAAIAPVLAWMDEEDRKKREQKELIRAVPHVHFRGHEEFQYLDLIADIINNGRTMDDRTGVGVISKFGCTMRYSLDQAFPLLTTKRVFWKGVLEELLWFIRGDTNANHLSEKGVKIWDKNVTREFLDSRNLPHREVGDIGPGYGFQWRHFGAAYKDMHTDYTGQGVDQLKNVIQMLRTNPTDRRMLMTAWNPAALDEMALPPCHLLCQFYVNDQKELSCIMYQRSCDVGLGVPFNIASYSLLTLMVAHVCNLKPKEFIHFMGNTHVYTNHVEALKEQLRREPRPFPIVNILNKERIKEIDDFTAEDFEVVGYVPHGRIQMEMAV
The assay is described as follows: Inhibitory activity against Toxoplasma gondii dihydrofolate reductase.

The target in assay [11] is Thymidylate synthase (Homo sapiens, UniProt P04818). The assay is described as follows: Inhibitory activity against human thymidylate synthase.
Sequence of Thymidylate synthase (Homo sapiens, UniProt P04818) (P04818 whole entry): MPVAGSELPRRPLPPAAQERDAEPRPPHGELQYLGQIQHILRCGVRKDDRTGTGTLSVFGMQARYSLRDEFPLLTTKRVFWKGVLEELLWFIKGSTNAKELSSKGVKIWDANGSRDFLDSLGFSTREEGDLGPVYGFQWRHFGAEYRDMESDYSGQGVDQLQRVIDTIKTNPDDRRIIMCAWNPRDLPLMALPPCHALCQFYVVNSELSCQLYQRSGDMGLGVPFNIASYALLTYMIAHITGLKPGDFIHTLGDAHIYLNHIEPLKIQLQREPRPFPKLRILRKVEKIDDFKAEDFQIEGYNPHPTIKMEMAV
For assay [12], the system named is FaDu. The assay is described as follows: Relative growth inhibition of FaDu cells at 9 uM drug concentration and in presence of 40 uM Thymidine. Format: functional, Homo sapiens.
Assay [13] concerns FaDu. The assay is described as follows: Relative growth inhibition of FaDu cells at 9 uM drug concentration and in presence of 50 uM Hypoxanthine. In kind it is functional, Homo sapiens.
For assay [14], the target named is T4, Dihydrofolate reductase (Homo sapiens, UniProt P00374).
T4 sequence (P00374 whole entry): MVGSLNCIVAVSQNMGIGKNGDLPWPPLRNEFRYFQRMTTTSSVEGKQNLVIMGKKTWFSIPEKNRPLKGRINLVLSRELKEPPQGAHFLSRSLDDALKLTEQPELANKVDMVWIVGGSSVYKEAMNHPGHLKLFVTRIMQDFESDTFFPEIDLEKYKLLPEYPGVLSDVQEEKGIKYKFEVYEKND
Description: Inhibitory activity against human dihydrofolate reductase

In assay [15] the target is Thymidylate synthase (Escherichia coli, UniProt C3SWJ7). As to the kind of experiment: Inhibitory activity against Escherichia coli thymidylate synthase.
Sequence of Thymidylate synthase (Escherichia coli, UniProt C3SWJ7) (C3SWJ7 whole entry): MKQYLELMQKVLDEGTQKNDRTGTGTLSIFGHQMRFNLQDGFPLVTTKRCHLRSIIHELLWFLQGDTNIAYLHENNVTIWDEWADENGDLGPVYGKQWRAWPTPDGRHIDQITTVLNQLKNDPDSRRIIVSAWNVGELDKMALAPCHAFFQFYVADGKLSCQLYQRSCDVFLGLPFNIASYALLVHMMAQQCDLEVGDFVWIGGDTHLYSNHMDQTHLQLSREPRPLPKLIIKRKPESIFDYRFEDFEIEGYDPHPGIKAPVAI
Assay [16] has as its system FaDu. As to the kind of experiment: Relative growth inhibition of FaDu cells in absence of metabolite at 9 uM concentration. Format: functional, Homo sapiens.
For assay [17], the system named is FaDu. The assay is described as follows: Relative growth inhibition of FaDu cells at 9 uM drug concentration and in presence of 10 uM Leucovorin. Format: functional, Homo sapiens.
Assay [18] concerns FaDu. The assay is described as follows: Relative growth inhibition of FaDu cells at 9 uM drug concentration and in presence of thymidine and hypoxanthine. In kind it is functional, Homo sapiens.

pEC50, pIC50: −log10 of the molar value.

In the case of `COc1ccc(OC)c(NCc2c[nH]c3nc(N)nc(O)c23)c1`, the pEC50 in assay [1] was under 5.00; in assay [2] it was 6.64; in assay [3], 6.34; in assay [7] it was 5.82; in [8] it was 6.38; in [9], under 5.00. The pIC50 in assay [4] was 4.33; in [6], under 4.33. In assay [5], the Ratio was over 21.

On to `Nc1nc(O)c2c(CNc3cccc(Cl)c3)c[nH]c2n1`, for which the Ratio in [5] is over 7.

On to `COc1cc(NCc2c[nH]c3nc(N)[nH]c(=O)c23)cc(OC)c1`, for which the pIC50 in [4] was 4.70; in assay [6], under 4.70.

Take `COc1cc(NCc2c[nH]c3nc(N)nc(O)c23)cc(OC)c1OC`: the pIC50 was 5.03 in assay [10], 4.66 in assay [4] and under 4.66 in assay [6]. In assay [5], the Ratio is over 2.4.

As for `Nc1nc(O)c2c(CNc3ccc(C(=O)N[C@@H](CCC(=O)O)C(=O)O)cc3)c[nH]c2n1`, the pIC50 is 4.34 in assay [11], 6.10 in assay [10], 5.00 in [14] and under 3.92 in [15]. Besides, the Relative growth in assay [12] was 74; in assay [13] it was 5; in [16], 5; in assay [17], 64; in assay [18], 79. Besides, the pEC50 in assay [1] is 6.00; in assay [2], 7.10; in assay [3], 6.92; in assay [7], 6.51; in assay [8], 6.70; in assay [9], 6.10.

On to `Nc1nc2[nH]cc(CNc3cccc(Cl)c3)c2c(=O)[nH]1`, for which the pIC50 in assay [4] is 4.59; in [6] it was under 4.59.

For `COc1ccc(OC)c(N(C)Cc2c[nH]c3nc(N)[nH]c(=O)c23)c1`, the figures for the pIC50 in [10], in assay [4] and in assay [6] were 4.99, 4.25 and under 4.25, respectively.

Take `Nc1nc(O)c2c(CNc3ccc(Cl)cc3Cl)c[nH]c2n1`: the Ratio in assay [5] is over 7.

Consider `COc1cc(N(C)Cc2c[nH]c3nc(N)[nH]c(=O)c23)cc(OC)c1OC`, for which the pIC50 in assay [10] is 4.43; in assay [4] it was 4.35; in assay [6], under 4.35.

With `COc1cc(N(C)Cc2c[nH]c3nc(N)nc(O)c23)cc(OC)c1OC`, the Ratio in assay [5] was over 2.

Turning to `Nc1nc(O)c2c(CNc3cc(Cl)ccc3Cl)c[nH]c2n1`, the figures for the pIC50 in assay [10], in [4] and in assay [6] were 6.18, 4.60 and under 4.60, respectively. Moreover, in assay [5], the Ratio is over 38.

`Nc1nc2[nH]cc(CNc3cc(Cl)cc(Cl)c3)c2c(=O)[nH]1`: the results for the pIC50 in assay [10] and in [4] were 5.39 and 4.20, respectively.

`COc1cc(OC)cc(N(C)Cc2c[nH]c3nc(N)nc(O)c23)c1`: the pIC50 in [10] was 5.38; in [4] it was 4.06; in assay [6] it was under 4.06. Besides, in assay [5], the Ratio was over 21.

`Nc1nc(O)c2c(CNc3cc(Cl)cc(Cl)c3)c[nH]c2n1`: in [5], the Ratio is over 15.4.

`COc1cc(NCc2c[nH]c3nc(N)nc(O)c23)cc(OC)c1`: the Ratio in assay [5] was over 8.

In the case of `COc1ccc(NCc2c[nH]c3nc(N)nc(O)c23)c(OC)c1`, the pIC50 is 4.80 in [4] and under 4.80 in assay [6]. Also, the Ratio in [5] was over 2.3.

On to `Nc1nc2[nH]cc(CNc3ccc(Cl)cc3Cl)c2c(=O)[nH]1`, for which the pIC50 in assay [4] was 4.82; in [6] it was under 4.82.

As for `CN(Cc1cnc2nc(N)nc(N)c2n1)c1ccc(C(=O)N[C@@H](CCC(=O)O)C(=O)O)cc1` [METHOTREXATE], the pEC50 in [1] was 7.72.

For the molecule `COc1ccc(OC)c(N(C)Cc2c[nH]c3nc(N)nc(O)c23)c1`, the Ratio in [5] is over 6.

`Nc1nc2[nH]cc(CCc3ccc(C(=O)N[C@@H](CCC(=O)O)C(=O)O)cc3)c2c(=O)[nH]1` [PEMETREXED]: the pIC50 in assay [11] was 5.24.
